The record followed here is US9550815B2, “ABC terpenoid transporters and methods of using the same” (priority 2012, dated 2017).

For test [1], the system named is G. clavigera WT. The test is described as follows: Mycelium growth on MEA with monoterpenes. In kind it is cell-based, Grosmannia clavigera. The note with it: for growth delay of G. clavigera WT: 200 μL individual monoterpene or MT; for fungal growth rate, G. clavigera WT: 200 μL monoterpene, linear phase after delay. The method, then:
(§1) Mono- and diterpene treatments were performed on glass petri dishes with the mono- and diterpenes applied to filter paper that was placed in the cover of the petri dish, which was sealed by Duraseal film. Specifically, plugs of actively growing G. clavigera fungal cultures on MEA were transferred into the center of glass petri dishes containing yeast nitrogen base-complete medium (YNB-CM; 0.17% YNB without amino acids, 1.5% granulated agar, 1% maltose, 0.1% PHP, and 0.3% asparagine). Two (2×4 cm) strips of filter paper were placed inside the lid of the plate and 200 μL of individual mono- or diterpenes or a mixture of monoterpenes (MT) were added onto the filter paper. The glass plates were sealed with DuraSeal™ film (Laboratory Sealing Film, VWR, cat #89031-573) and incubated at ˜22° C. in a sealed glass container for 7 days or until the mycelium reached the edge of the plates. Colony diameters were measured daily.
(§2) Colony morphologies and growth rates were examined for G. clavigera WT and mutant Δgcabc-g1 grown on malt extract agar (MEA) in the presence and absence of 200 μL of a mixture of monoterpenes as described in Example 3.A.1. above. Fungal growth rates were calculated (mm/day). Mycelium growth rates were also determined in the presence or absence of 200 μL of individual monoterpenes, including R-(+)-limonene, 3-carene, α-pinene and β-pinene, or 200 μL of a mixture of monoterpenes (R-(+)-limonene, 3-carene, α-pinene and β-pinene at a ratio of 5:3:1:1). Fungal spores were incubated for 3 days on MEA overlaid with cellophane (Amersham Biosciences, cat #80611781); then the young mycelia were treated with individual monoterpenes or a mixture of monoterpenes (200 μL) for 3-4 days before being transferred onto YNB. In YNB, monoterpenes were provided on filter paper as described in Example 3.A.1. and if necessary were re-supplied biweekly until the mycelia covered at least half of the media surface (3-4 weeks). Colony diameters were measured daily. Fungal growth rates were calculated (mm/day). Results were calculated as the average of 5 replicates and standard deviation was calculated.

The test system of test [2] is mutant Δgcabc-g1. The test is described as follows: Mycelium growth on MEA with monoterpenes. In kind it is cell-based, Grosmannia clavigera. The note with it: for growth delay of mutant Δgcabc-g1: 200 μL individual monoterpene or MT; for fungal growth rate, mutant Δgcabc-g1 / growth rate of mutant Δgcabc-g1 lower than G. clavigera WT: 200 μL monoterpene; for fungal growth rate, mutant Δgcabc-g1: linear phase after delay. Here is the method: as §1
Agrobacterium GV3101, a laboratory stock, was used to transform G. clavigera. The whole gene open reading frame (ORF) encoding GcABC-G1 in G. clavigera was replaced with the selective gene marker hygromycin B (hph). Gene replacement (deletion) was verified by PCR amplification of adjacent regions, target region and selective marker gene, and copy numbers were determined by southern blot. The G. clavigera GcABC-G1 deletion mutant was designated mutant Δgcabc-g1.
as §2

Test [3] relates to G. clavigera WT fungal spores. Kind of test: Asexual spore germination and survival with monoterpenes. The format is cell-based, Grosmannia clavigera. The following applies: MEA, 200 μL monoterpene; for spore germination inhibition, G. clavigera: counted after 6 days; for spore germination partially reduced, G. clavigera: 6 days, relative to non-treated control. The method, then: (§3) G. clavigera WT or mutant Δgcabc-g1 fungal spores were collected from 7-14 day old cultures grown on MEA (0.83% Oxoid™ malt extract agar and 0.75% technical agar, pH was adjusted to 5-6). Mycelium debris was removed by filtration (BD Falcon Cell Strainers; cat #08-771-1). Spore concentrations were determined using a haemocytometer and further diluted to ˜2 spores/μL. 100 μL of the spore suspension was spread on MEA in glass plates. For monoterpene treatment, two (2×4 cm) strips of filter paper were placed inside the lid of the plate and 200 μL of a mixture of monoterpenes were added onto the filter paper. For diterpene treatment, 100 μL of the spore suspension was spread on MEA containing 0.01% of a mixture of diterpenes (abietic acid, dehydroabietic acid and isopimaric acid). The glass plates were sealed with DuraSeal™ film (Laboratory Sealing Film, VWR, cat #89031-573) and incubated at ˜22° C. in a sealed glass container. The germinated spores were counted daily; at day 6 the monoterpenes were removed and the MEA plates were further incubated for 4 days to assess the survival of the spores.

Test [4] relates to mutant Δgcabc-g1 fungal spores. Described as above. The format is cell-based, Grosmannia clavigera. The method, then:
as §3

Another test relates to Wildtype G. clavigera. The test is described as follows: Growth on YNB with monoterpenes as sole carbon source. The following applies: 200 μL, 4 weeks. In kind it is cell-based, Grosmannia clavigera. The method, then:
(§4) Fungal spores were incubated for 3 days on 1% malt extract agar (MEA) overlaid with cellophane (Amersham Biosciences, cat #80611781), then the young mycelia were treated with a mixture of monoterpenes (200 μL) for 3-4 days before being transferred onto yeast nitrogen base (YNB) medium with a mixture of monoterpenes (MT) as sole carbon source (YNB+MT; […] YNB without amino acids, but with ammonium sulphate) in glass plates. The synthetic monoterpenoid blend contained R-(+)-limonene, 3-carene, α-pinene and β-pinene at a ratio of 5:3:1:1. If necessary monoterpenes were re-supplied biweekly until the mycelia covered at least half of the media surface (3-4 weeks). RNA-seq analysis was performed after 10 days. G. clavigera grown on YNB+1% mannose as the sole carbon source was used as a control.
(§5) Experiments were performed as described in Example 3.A.2. Growth of wildtype G. clavigera and the mutant Δgcabc-g1 was determined utilizing yeast nitrogen base (YNB)+either 10 μL or 200 μL of (+)-limonene, α-pinene or β-pinene. Growth was determined after 4 weeks. Monoterpenes were re-supplied every 2 weeks. Growth on YNB alone was used as a negative control. Growth on YNB+1% mannose was used as a positive control.

A further test concerns Sc-ABC. The test is described as follows: Yeast cell survival, dilution plate assay. The format is cell-based, Saccharomyces cerevisiae. The following applies: for Sc-ABC cells survived relative to Sc-V: one-hour treatment, 5 μL monoterpene, counted after 4 days; for Observation (B) Transformed Sc survival: GcABC-G1-dependent difference, Sc-ABC versus Sc-V; for relative inhibition of the yeast GcABC-G1 transformant by individual monoterpenoids: individual monoterpenoids compared. Here is the method:
The survival of Sc-V and Sc-ABC with individual monoterpenes was shown using a dilution plate assay. Overnight yeast cultures grown in SG broth were diluted to an OD600 of 0.2 and further grown to an OD600 of 0.4 at 28° C. The yeast cells were diluted to an appropriate density that was spread on SG media in Petri dishes glass (10^5 per petri dish). The yeast cells were treated for one hour with a specific monoterpene (5 μL) diluted in 245 μL ethanol; the solution was applied on five small filter papers placed inside the lid and the glass plates were sealed with DuraSeal film. After one-hour incubation, the chemical was removed and plates were further incubated for 4 days at 28° C. The numbers of surviving cells with and without monoterpene treatments were counted.

The subject of test [5] is G. clavigera WT. The test is described as follows: Growth on MEA with individual diterpenes. The following applies: individual diterpene in MEA (0.1% per FIG. 8), pH ~8.0. In kind it is cell-based, Grosmannia clavigera. The method, then:
(§6) Growth rates were examined for G. clavigera WT and the mutant Δgcabc-g1 grown on MEA in the presence or absence of 200 μL of abietic acid, dehydroabietic acid and isopimaric acid as described in Example 3.A.2. Each diterpene was dissolved in a basic NaOH solution before being added into the MEA medium; the final pH of the medium was ˜8.0. Growth rates were calculated daily (mm/day). The results are shown in FIG. 8, which indicates growth rate in mm/24 hr for the average of three replicates. Error bar represents standard deviation.

The subject of test [6] is mutant Δgcabc-g1. The test is described as follows: Growth on MEA with individual diterpenes. In kind it is cell-based, Grosmannia clavigera. The following applies: individual diterpene in MEA (0.1% per FIG. 8), pH ~8.0. The method, then: as §6
Test [7] deals with mutant Δgcabc-g1. Kind of test: Growth on YNB with monoterpenes as sole carbon source. The format is cell-based, Grosmannia clavigera. The method, then:
as §4, §5

A further test deals with O. piceae. The test is described as follows: Growth on YNB with quinic acid as sole carbon source. The format is cell-based, Ophiostoma piceae. The following applies: YNB media. The source says:
The cluster contains seven genes that include a quinate permease, two regulatory genes, one acting as an activator and the other as a repressor, and the four genes of the quinate/shikamate catabolic pathway (Asch et al. (1991) Mol Gen Genet 230(3):337-344, Giles et al. J Hered 82(1):1-7). The latter four catabolic genes (OPP_08735 to OPP_08738) reveal that O. piceae uses quinic acid in wood as a carbon source. While this gene cluster is reported in many fungi, this gene cluster was not identified in G. clavigera. […] Finally, a secreted lipase (OPP_00605) with a predicted triglycerides degradation activity was identified; its abundance relative to the control mannose was at least 50-fold.

Setting [8] is: MEA, 200 μL monoterpene, 6 days.

For `CC1=CCC2CC1C2(C)C` (racemic) [α-pinene], in the test with G. clavigera WT [1], the “growth delay of G. clavigera WT” value is reported as “not” and the “fungal growth rate, G. clavigera WT” value is approximately 7 mm/day. Moreover, in the test on mutant Δgcabc-g1 [2], the “growth delay of mutant Δgcabc-g1” value is 1 days and the “fungal growth rate, mutant Δgcabc-g1” value was approximately 7 mm/day. For the same compound, the “spore germination inhibition, G. clavigera” value in [3] is “not inhibited”. In addition, in [4] (MEA, 200 μL monoterpene, 6 days, relative to non-treated control), the “spore germination reduced, mutant Δgcabc-g1” value was 30%. For the same compound, in test [4] ({}), the “Observation (A) Gc spore survival” value was “+ (Difference between with and without GcABC-G1 is less than 50%, P-value < 0.01)”. Also, the “growth with monoterpene as sole carbon source, wildtype G. clavigera” value (shortened to “growth with monoterpene”) in the test with Wildtype G. clavigera is listed as “not able to utilize”. The “Sc-ABC cells survived relative to Sc-V” value in the test on Sc-ABC is on record as “not significantly different”.

Regarding `C=C[C@@]1(C)CC[C@H]2C(=CC[C@@H]3[C@]2(C)CCC[C@@]3(C)C(=O)O)C1` [isopimaric acid], the “growth inhibition, G. clavigera WT” value in the test with G. clavigera WT [5] is reported as “only slightly inhibited growth”. Further, the “growth inhibition, mutant Δgcabc-g1” value with mutant Δgcabc-g1 [6] was “only slightly inhibited growth”.

On to `C=C(C)C1CC=C(C)CC1` (single isomer, unassigned; (+)) [(+)-limonene, R-(+)-limonene], for which the “growth delay of G. clavigera WT” value with G. clavigera WT [1] is 1 days. Besides, in the test on mutant Δgcabc-g1 [2], the “growth delay of mutant Δgcabc-g1” value is on record as 2 days and the “growth rate of mutant Δgcabc-g1 lower than G. clavigera WT” value is reported as 52%. For the same compound, the “spore germination partially reduced, G. clavigera” value in test [3] is approximately 70%. Also, the “Observation (A) Gc spore survival” value in [4] (GcABC-G1-dependent difference, Gc versus Δgcabc-g1) was “+ (Difference between with and without GcABC-G1 is less than 50%, P-value < 0.01)”. In addition, the “spore germination, mutant Δgcabc-g1” value in test [4] (setting [8]) is listed as “completely prevent spore germination”. In the test with Wildtype G. clavigera, the “growth with monoterpene” value is on record as “grew”. The “fate of mutant Δgcabc-g1 on YNB with monoterpene” value in the test on mutant Δgcabc-g1 [7] (10 μL) was “survived, but did not grow”. Further, the “fate of mutant Δgcabc-g1 on YNB with monoterpene” value in the test with mutant Δgcabc-g1 [7] (200 μL) is on record as “killed”. Also, in the test with Sc-ABC, the “Observation (B) Transformed Sc survival” value is “+++ (Difference between with and without GcABC-G1 is more than 50%, P-value < 0.01)”; the “relative inhibition of the yeast GcABC-G1 transformant by individual monoterpenoids” value is “least inhibitory effect”; the “Sc-ABC cells survived relative to Sc-V” value is “approximately 7 times”.

For `C=C1CC[C@H]2C[C@@H]1C2(C)C` [(−)-β-pinene, (1S)-(−)-β-Pinene], in the test on mutant Δgcabc-g1 [2], the “growth delay of mutant Δgcabc-g1” value is given as “up to 3 days” and the “growth rate of mutant Δgcabc-g1 lower than G. clavigera WT” value is on record as 60%. For the same compound, the “spore germination partially reduced, G. clavigera” value in test [3] is approximately 70%. For the same compound, in test [4] (setting [8]), the “spore germination, mutant Δgcabc-g1” value is reported as “completely prevent spore germination”. Besides, the “Observation (A) Gc spore survival” value in test [4] ({}) was “+ (Difference between with and without GcABC-G1 is less than 50%, P-value < 0.01)”. For the same compound, the “growth with monoterpene” value in the test with Wildtype G. clavigera is on record as “not able to utilize”. Besides, in the test on Sc-ABC, the “Observation (B) Transformed Sc survival” value was “+++ (Difference between with and without GcABC-G1 is more than 50%, P-value < 0.01)”; the “relative inhibition of the yeast GcABC-G1 transformant by individual monoterpenoids” value is “strongest inhibition effect”; the “Sc-ABC cells survived relative to Sc-V” value is given as approximately 3 times.

With `CC(C)C1=CC2=CC[C@@H]3[C@](C)(CCC[C@@]3(C)C(=O)O)[C@H]2CC1` [abietic acid], the “growth inhibition, G. clavigera WT” value with G. clavigera WT [5] was “only slightly inhibited growth”. Moreover, in the test with mutant Δgcabc-g1 [6], the “growth inhibition, mutant Δgcabc-g1” value was “only slightly inhibited growth”.

Take `O=C(O)[C@]1(O)C[C@@H](O)[C@@H](O)[C@H](O)C1` [quinic acid]: in the test on O. piceae, the “growth of O. piceae with quinic acid as sole carbon source” value is “grows”.

As to `CC1=CCC2C(C1)C2(C)C` (centres unmarked) [3-carene], in the test on G. clavigera WT [1], the “growth delay of G. clavigera WT” value came out at 1 days and the “fungal growth rate, G. clavigera WT” value is recorded as 5 to 6 mm/day. Also, in the test with mutant Δgcabc-g1 [2], the “growth delay of mutant Δgcabc-g1” value was found to be 2 days and the “fungal growth rate, mutant Δgcabc-g1” value fell in the range of 5 to 6 mm/day. Further, the “spore germination inhibition, G. clavigera” value in test [3] was “not inhibited”. Also, the “spore germination, mutant Δgcabc-g1” value in test [4] (setting [8]) was “completely prevent spore germination”. Also, in test [4] ({}), the “Observation (A) Gc spore survival” value is “+++ (Difference between with and without GcABC-G1 is more than 50%, P-value < 0.01)”. Besides, in the test on Sc-ABC, the “Observation (B) Transformed Sc survival” value was “+++ (Difference between with and without GcABC-G1 is more than 50%, P-value < 0.01)”; the “Sc-ABC cells survived relative to Sc-V” value is “approximately 30 times”.
